Reference: patent US20240366555A1, “SELECTIVE MTORC2 INHIBITOR AND USES THEREOF” (ALIAD BIOPHARMA, priority 2021, published 2024)

What was measured:
Pten KO mice = experiment: Elevated plus maze test in Pten KO mice; type: in vivo; settings: Pten KO mice administered athyriol; FIG. 2
Experimental: As Pten KO mice, Ptenf/f_cre/cre KO mice or Ptenf/f_cre/++ Het mice (KD) were obtained by mating Pten floxed/floxed mice and CAMKII-cre mice. DMSO or athyriol was intraperitoneally injected at 5 or 10 mg/kg for 2 weeks from the age of mice of 6 weeks, and a behavioral test was performed in 7 days after administration. Pten floxed/floxed mice were used as littermates of the same age as a normal control group.
In order to confirm whether emotional instability was improved, when athyriol was administered to an autism spectrum disorder animal model, Pten KO mice, an elevated plus maze test was performed. An anxiety disorder animal model behavioral test was evaluated as a tendency to avoid an open arm exposed to the elevated-plus maze and stay in a closed arm. Analysis was conducted with a video tracking system (Ethovision EPM program, Noldus information technology, Wageningen, Netherlands). In the elevated plus maze test measuring emotional instability disorder, when the emotional anxiety increases, the time spent in the closed arm increases compared to the time spent in the open arm.

[1] = test system: mTORC2 signaling (Fox03a location); experiment: Fox03a intracellular location by immunofluorescent staining in A549; type: cell-based, human; settings: A549 cells, treated for 3 hours; FIG. 7c
Excerpt: mTORC2 activates SGK3, and SGK3 phosphorylates Fox03a, allowing Fox03a to remain in the cytoplasm. When mTORC2 is inhibited, Fox03a is dephosphorylated and translocated to the nucleus, and in the nucleus, it binds to FHRE located in a gene promoter to induce gene expression. Therefore, the change in the intracellular location of Fox03a and FHRE dependent gene expression become indicators for evaluating mTORC2 activity. In order to evaluate the effect of norathyriol on the mTORC2 activity, norathyriol was treated to A549, and then the change in the intracellular location of Fox03a was investigated by immunofluorescent staining.
Specifically, the A549 cells of 1×10^5 were seeded in a confocal dish coated with 35 mm collagen and cultured for 1 day. After treating norathyriol, the cells were fixed with 4% paraformaldehyde at 4° C. for 15 minutes. After treating PBS containing 0.5% Triton X-100 (PBS-T) at a room temperature for 5 minutes for permeabilization, PBS containing 5% normal goat serum and 1% gelatin was treated at a room temperature for 30 minutes for blocking. The Fox03a antibody diluted in 1% BSA was treated at a room temperature for 1 hour. After washing the culture dish with PBS-T, an FITC conjugated anti-rabbit secondary antibody diluted in 1% BSA was treated at a room temperature for 50 minutes. […]

[2] = target: T1, mTORC2 located in late endosome of dendritic spines (Rattus norvegicus, UniProt P42346); experiment: LocaTOR2 assay-immunofluorescent staining in primary cultured cerebral neurons (mGluR-dependent mTORC2 activation); type: cell-based; settings: neurons pretreated with norathyriol; FIG. 11b
T1 construct: endogenous in cells; host or cells: primary cultured cerebral neurons from SD-rat E16 embryos, transduced by lentivirus only with mCherry-FRB-AKT2 and Rab7-FKBP
Excerpt: By combining Loca-TOR2 assay and immunofluorescence staining, changes in mTORC2 activity located in the late endosome during the induction process of long term depression (LTD) occurring in dendritic spines of primarily cultured cerebral neurons were investigated, and the inhibitory effect of norathyriol on these changes was investigated.
Specifically, mCherry-FRB-AKT2 and Rab7-FKBP were introduced using a lentiviral vector on the primarily cultured cerebral neuron on the DIV5 day, and AP21967 was treated on the DIV17 day to induce binding of FRB and FKBP, and thereby, mCherry-FRB-AKT2 was located in the late endosome. After that, DHPG, which is an mGluR agonist inducing long-term depression, was treated. […] In addition, by measuring Ser473 phosphorylation staining of mCherry-FRB-AKT2 overlapped with PSD-95 staining, which is a protein located in dendritic spines, by immunofluorescent staining, changes in mTORC2 activity located in the late endosome in the dendritic spines can be investigated. After staining using a phospho-Ser473 AKT antibody by immunofluorescent staining, the degree of AKT Ser473 phosphorylation was quantified by counting the number of each fluorescent puncta larger than 0.4 μm or more in size in the dendrites (green). In addition, the dendritic spines were observed by staining with PSD95 antibody (yellow), and the location of mCherry-FRB-AKT2 was investigated by observing mCherry fluorescence (cherry color).
SD-rat gestational age 16-day mice (Orient Bio) were purchased and the mice were anesthetized with CO2 and then embryos were taken out. Until the forebrain was isolated and the meninges were removed, it was performed by the same method as the hippocampal culture, and when the cerebrum was isolated, the dorsal cortex or ventral cortex was cut with a bended syringe needle, and it was collected in new HBSS. The tissue isolated and collected was transferred to a 15 ml tube with a Pasteur pipette, and then in order to remove the remaining meninges and blood vessels, and the like, 2 ml HBSS and 0.25% trypsin of 2 ml were added, and it was reacted in a 37° C. shaker for 10-15 minutes. The cells were settled and the supernatant was removed leaving 1-2 ml, and then trypsin was inactivated by adding DMEM comprising the equal amount of 20% FBS. After centrifugation at 700 rpm for 15 minutes, the supernatant was discarded all and the collected tissue was released, and then Neurobasal culture medium (+glutamate) of 2 ml was added, and titrated with a pipette, and the cells were isolated by changing to a pipette with a narrow end. […] The number of cells was measured with a hemocytometer, and then the cells were seeded in a coated culture dish. […]

| Structure (SMILES) | reduction of time spent in the closed arm (Pten KO mice) [%] | time in the center zone (Pten KO mice) | intracellular location of Fox03a [1] | AKT-Ser473 phosphorylation induced by DHPG [2] |
| --- | --- | --- | --- | --- |
| COc1cc(O)c2c(=O)c3cc(O)c(O)cc3oc2c1 [athyriol, 1,6,7-Trihydroxy-3-methoxy-9H-xanthen-9-on] | 15 | recovered to the normal control group level |  |  |
| O=c1c2cc(O)c(O)cc2oc2cc(O)cc(O)c12 [norathyriol, 1,3,6,7-tetrahydroxy-9H-xanthen-9-one] |  |  | moved to the nucleus | measured similarly to the control group level |
